The values that follow come from paper PMC3553014, “Albumin Stimulates the Activity of the Human UDP-Glucuronosyltransferases 1A7, 1A8, 1A10, 2A1 and 2B15, but the Effects Are Enzyme and Substrate Dependent” (PLoS ONE, 2013).

Like-named read-outs stand apart in the source and are kept apart here. Bounds are passed on as bounds.

Series [1] concerns the target T1, UGT1A1 (Homo sapiens, UniProt P22309).
T1 sequence (P22309 26-533): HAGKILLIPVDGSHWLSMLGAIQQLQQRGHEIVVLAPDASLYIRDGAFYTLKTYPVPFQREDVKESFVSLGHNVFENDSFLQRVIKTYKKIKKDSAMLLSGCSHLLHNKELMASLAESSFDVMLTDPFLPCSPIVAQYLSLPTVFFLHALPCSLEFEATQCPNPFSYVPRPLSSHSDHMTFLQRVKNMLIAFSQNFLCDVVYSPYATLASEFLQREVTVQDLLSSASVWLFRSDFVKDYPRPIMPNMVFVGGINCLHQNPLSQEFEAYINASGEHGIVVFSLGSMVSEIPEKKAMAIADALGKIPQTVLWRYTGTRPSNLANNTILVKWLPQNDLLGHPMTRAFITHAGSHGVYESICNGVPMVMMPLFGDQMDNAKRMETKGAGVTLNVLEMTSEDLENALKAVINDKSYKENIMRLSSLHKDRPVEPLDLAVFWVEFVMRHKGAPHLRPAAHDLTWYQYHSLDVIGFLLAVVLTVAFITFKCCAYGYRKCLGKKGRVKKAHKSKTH
As to conditions: read-out: No BSA: K m or S 50 ± S.E. (95% CI).
Procedure: (§1) Recombinant human UGTs 1A1, 1A6, 1A7, 1A8, 1A10, 2A1, 2B4, 2B7 and 2B17 were expressed as His-tagged proteins in baculovirus-infected insect cells as described previously [14]. […] Protein concentrations were determined by the BCA method (Pierce Biotechnology, Rockford, IL, USA).
(§2) The protein concentrations and incubation times for the enzyme kinetic assays were selected based on preliminary assays in order to ensure that the product formation was within the linear range with respect to both protein concentration and time, and that the substrate consumption during the reaction was less than 10%. The initial velocity measurements were performed in either duplicates or triplicates and they are presented as the average values and S.E.
The HPLC system consisted of an Agilent 1100 series degasser, binary pump, 100-vial autosampler, thermostated column compartment, multiple wavelengths UV detector, and fluorescence detector (Agilent Technologies, Palo Alto, CA, USA). […] The resulting chromatograms were analyzed with Agilent ChemStation software (rev. B.01.01) on Windows XP Professional. […] The resulting chromatograms were analyzed with Empower 2 software (Build 2154, Waters, Milford, MA, USA) on Windows XP Professional operating system. The limits of detection and quantification were estimated based on signal-to-noise ratios of 3 and 10, respectively. […]

Series [2] addresses T2, UGT1A10 (Homo sapiens, UniProt Q9HAW8).
T2 construct: His-tag; made in house; host or cells: baculovirus-infected insect cells (Sf9)
T2 sequence (Q9HAW8 26-530): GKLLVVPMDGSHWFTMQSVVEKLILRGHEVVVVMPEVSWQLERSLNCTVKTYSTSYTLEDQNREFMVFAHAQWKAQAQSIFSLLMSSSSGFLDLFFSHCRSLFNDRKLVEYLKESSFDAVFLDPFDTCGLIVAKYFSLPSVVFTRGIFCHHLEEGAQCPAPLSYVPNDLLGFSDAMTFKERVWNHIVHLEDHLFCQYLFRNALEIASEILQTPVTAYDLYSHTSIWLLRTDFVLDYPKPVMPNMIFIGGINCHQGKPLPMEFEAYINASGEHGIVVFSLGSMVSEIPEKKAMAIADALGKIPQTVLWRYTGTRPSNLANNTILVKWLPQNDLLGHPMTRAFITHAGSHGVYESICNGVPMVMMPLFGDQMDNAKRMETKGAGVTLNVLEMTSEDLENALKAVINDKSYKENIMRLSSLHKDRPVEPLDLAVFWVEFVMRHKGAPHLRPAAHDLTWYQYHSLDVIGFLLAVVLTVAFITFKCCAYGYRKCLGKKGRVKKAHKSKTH
Kind of series: UGT1A10-catalyzed glucuronidation, enzyme kinetics. The following applies: No BSA; expression level-normalized; estradiols: 3-glucuronide formation. Format: in vitro ADME.
Procedure: as §1, §2
The glucuronidation rates by recombinant enzymes are reported as “expression normalized” values. The relative expression level of each recombinant UGT that was produced in our laboratory was determined using immunoblotting, as previously described [14], [19]. […] The “expression normalized” glucuronidation rates were calculated by dividing the measured glucuronidation rates with relative expression level of the each given recombinant UGT.
In assays containing BSA, the total concentrations of substrate were corrected according to the measured drug binding to BSA, under the specific conditions of each glucuronidation assay.

The target of series [3] is T3, UGT2B7 (Homo sapiens, UniProt P16662).
T3 sequence (P16662 24-529): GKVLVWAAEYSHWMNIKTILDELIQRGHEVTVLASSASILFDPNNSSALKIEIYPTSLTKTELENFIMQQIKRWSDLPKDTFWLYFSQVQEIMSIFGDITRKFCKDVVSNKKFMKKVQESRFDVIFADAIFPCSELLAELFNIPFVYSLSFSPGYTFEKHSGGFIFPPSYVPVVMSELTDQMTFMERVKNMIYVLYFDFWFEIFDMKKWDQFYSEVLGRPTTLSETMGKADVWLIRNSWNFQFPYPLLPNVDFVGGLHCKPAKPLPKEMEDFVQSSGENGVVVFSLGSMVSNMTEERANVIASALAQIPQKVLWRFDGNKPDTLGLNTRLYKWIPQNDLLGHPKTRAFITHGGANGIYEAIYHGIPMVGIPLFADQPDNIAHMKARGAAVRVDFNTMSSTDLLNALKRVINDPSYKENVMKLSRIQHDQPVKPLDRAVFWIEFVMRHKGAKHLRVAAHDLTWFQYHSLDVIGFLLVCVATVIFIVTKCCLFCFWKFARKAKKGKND
The following applies: No BSA; expression level-normalized; estradiols: 17-glucuronide formation.
Procedure: (§3) Protein concentrations were determined by the BCA method (Pierce Biotechnology, Rockford, IL, USA).
as §2
(§4) The glucuronidation rates by recombinant enzymes are reported as “expression normalized” values. […] The dot blot assays were performed in triplicate and the average value was used for normalization. […] The “expression normalized” glucuronidation rates were calculated by dividing the measured glucuronidation rates with relative expression level of the each given recombinant UGT.
(§5) In assays containing BSA, the total concentrations of substrate were corrected according to the measured drug binding to BSA, under the specific conditions of each glucuronidation assay. The statistical significance of the difference in enzyme kinetics parameters upon BSA addition was tested with extra sum-of-squares F-test (included in the GraphPad software, [20]. The initial glucuronidation rates were fitted to the following equations:

Series [4] concerns the target T4, UGT1A7 (Homo sapiens, UniProt Q9HAW7).
T4 construct: His-tag; made in house; host or cells: baculovirus-infected insect cells (Sf9)
T4 sequence (Q9HAW7 26-530): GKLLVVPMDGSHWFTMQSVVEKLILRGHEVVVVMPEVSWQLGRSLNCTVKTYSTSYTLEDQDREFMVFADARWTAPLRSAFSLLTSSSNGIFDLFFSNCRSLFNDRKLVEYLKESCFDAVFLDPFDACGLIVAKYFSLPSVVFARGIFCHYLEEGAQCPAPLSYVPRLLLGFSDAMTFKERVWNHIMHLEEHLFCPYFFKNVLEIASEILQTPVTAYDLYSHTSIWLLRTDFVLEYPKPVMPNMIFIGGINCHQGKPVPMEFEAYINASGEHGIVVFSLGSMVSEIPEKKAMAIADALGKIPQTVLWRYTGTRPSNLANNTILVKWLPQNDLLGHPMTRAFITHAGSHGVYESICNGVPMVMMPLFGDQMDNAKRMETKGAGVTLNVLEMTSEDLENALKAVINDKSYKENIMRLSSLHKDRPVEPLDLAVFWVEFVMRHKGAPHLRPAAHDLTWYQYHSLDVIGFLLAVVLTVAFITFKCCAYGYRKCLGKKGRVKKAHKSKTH
Kind of series: UGT1A7-catalyzed glucuronidation, enzyme kinetics. Type of series: in vitro ADME. The following applies: for V max ± S.E.: No BSA, expression level-normalized.
Procedure: as §3, §2
The glucuronidation rates by recombinant enzymes are reported as “expression normalized” values. […] The “expression normalized” glucuronidation rates were calculated by dividing the measured glucuronidation rates with relative expression level of the each given recombinant UGT.
The enzyme kinetic parameters were obtained by fitting kinetic models to the experimental data using GraphPad Prism version 5.04 for Windows (GraphPad Software Inc., San Diego, CA, USA).

The target in series [5] is T1, UGT1A1. Kind of series: UGT1A1-catalyzed glucuronidation, enzyme kinetics. As to conditions: No BSA; expression level-normalized; estradiols: 3-glucuronide formation.
Procedure: as §1, §2
(§6) The glucuronidation rates by recombinant enzymes are reported as “expression normalized” values. The relative expression level of each recombinant UGT that was produced in our laboratory was determined using immunoblotting, as previously described [14], [19]. The dot blot assays were performed in triplicate and the average value was used for normalization. […] The “expression normalized” glucuronidation rates were calculated by dividing the measured glucuronidation rates with relative expression level of the each given recombinant UGT.
as §5
The target in series [6] is T5, UGT2B15 (Homo sapiens, UniProt P54855).
T5 sequence (P54855 24-530): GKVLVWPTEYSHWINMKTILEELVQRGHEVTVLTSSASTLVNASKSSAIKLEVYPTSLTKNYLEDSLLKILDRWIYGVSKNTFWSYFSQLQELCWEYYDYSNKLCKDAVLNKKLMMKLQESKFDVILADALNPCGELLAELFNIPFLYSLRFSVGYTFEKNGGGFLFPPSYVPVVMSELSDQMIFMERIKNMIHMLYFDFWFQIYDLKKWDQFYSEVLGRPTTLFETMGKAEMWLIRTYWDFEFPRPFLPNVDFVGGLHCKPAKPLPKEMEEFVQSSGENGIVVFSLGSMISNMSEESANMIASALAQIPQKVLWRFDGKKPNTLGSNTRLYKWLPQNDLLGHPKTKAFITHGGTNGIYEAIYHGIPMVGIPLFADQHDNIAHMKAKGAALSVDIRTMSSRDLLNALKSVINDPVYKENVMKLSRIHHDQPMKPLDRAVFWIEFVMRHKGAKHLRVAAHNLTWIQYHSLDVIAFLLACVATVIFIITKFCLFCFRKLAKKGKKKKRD
Procedure: as §1, §2, §6, §5

Series [7] addresses T6, UGT1A6 (Homo sapiens, UniProt P19224).
T6 sequence (P19224 27-532): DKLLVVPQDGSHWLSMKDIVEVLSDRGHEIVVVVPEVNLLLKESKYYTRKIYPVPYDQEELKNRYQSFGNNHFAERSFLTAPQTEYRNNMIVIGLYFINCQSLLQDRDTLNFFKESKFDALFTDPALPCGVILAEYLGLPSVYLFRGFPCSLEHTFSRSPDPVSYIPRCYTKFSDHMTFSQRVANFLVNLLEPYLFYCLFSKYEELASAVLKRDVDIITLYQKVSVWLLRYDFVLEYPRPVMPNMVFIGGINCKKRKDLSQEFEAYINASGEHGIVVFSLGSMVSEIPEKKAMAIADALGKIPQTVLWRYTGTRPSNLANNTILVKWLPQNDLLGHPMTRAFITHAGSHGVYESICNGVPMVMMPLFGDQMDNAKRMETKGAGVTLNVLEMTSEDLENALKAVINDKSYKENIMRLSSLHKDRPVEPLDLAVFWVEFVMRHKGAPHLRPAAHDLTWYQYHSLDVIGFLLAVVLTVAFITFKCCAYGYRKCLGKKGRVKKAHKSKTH
Kind of series: UGT1A6-catalyzed glucuronidation, enzyme kinetics. As to conditions: No BSA; expression level-normalized.
Procedure: as §1, §2, §6, §5

Series [8] can be described thus: Nonspecific binding to the RED device. As to conditions: rapid equilibrium dialysis. Background: Equilibrium dialysis compares concentrations on both sides of a semipermeable membrane.
Series [9] concerns the target T7, BSA (Bos taurus, UniProt P02769). Kind of series: in vitro. As to conditions: bovine.
Series [10] is described as follows: Drug binding to control insect cell membranes by RED. As to conditions: 0.2 mg/mL total protein in the membrane.
Series [11] addresses T8, UGT2B4 (Homo sapiens, UniProt P06133).
T8 sequence (P06133 24-528): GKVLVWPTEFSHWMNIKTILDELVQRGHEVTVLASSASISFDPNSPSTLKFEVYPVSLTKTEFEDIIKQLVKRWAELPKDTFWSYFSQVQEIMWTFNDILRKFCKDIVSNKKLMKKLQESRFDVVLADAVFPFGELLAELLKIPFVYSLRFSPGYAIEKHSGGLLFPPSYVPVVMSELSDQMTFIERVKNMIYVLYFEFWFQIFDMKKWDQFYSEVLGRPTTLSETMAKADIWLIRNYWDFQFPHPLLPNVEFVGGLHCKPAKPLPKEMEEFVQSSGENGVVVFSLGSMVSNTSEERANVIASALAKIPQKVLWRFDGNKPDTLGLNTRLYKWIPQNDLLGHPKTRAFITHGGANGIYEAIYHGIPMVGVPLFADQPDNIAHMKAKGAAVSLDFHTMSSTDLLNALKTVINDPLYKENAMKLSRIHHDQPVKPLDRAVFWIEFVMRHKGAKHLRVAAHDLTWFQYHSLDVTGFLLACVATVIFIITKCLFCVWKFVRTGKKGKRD
Nature of the series: UGT2B4-catalyzed glucuronidation, enzyme kinetics.
Procedure: as §3, §2, §4, §5

Series [12] deals with T7, BSA. More on the design: purchased Sigma-Aldrich (St. Louis, MO, USA). The following applies: 1% BSA; cited from earlier work.
Series [13] has as its system UGT1A9 expressed in Sf9 insect cells. As to conditions: darexaban glucuronidation; cited from earlier work.
Series [14] deals with T9, UGT2A1 (Homo sapiens, UniProt P0DTE4).
T9 sequence (P0DTE4 21-527): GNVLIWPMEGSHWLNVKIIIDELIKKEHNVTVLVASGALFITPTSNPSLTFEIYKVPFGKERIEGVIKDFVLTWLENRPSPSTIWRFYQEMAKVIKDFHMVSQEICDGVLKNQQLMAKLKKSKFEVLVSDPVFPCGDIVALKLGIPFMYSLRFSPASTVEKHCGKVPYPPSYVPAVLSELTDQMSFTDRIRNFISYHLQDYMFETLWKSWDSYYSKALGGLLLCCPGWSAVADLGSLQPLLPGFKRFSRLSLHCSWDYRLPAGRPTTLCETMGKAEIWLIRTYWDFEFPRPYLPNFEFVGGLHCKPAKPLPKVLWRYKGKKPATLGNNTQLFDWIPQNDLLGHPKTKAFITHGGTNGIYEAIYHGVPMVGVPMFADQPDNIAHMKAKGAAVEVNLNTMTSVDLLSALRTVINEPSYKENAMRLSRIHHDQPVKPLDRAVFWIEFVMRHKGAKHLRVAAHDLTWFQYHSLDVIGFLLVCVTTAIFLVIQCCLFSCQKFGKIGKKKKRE
Kind of series: UGT2A1-catalyzed glucuronidation, enzyme kinetics. As to conditions: 0.1% BSA vs no BSA.
Procedure: as §1, §2, §6, §5

T7 sequence (P02769 25-607): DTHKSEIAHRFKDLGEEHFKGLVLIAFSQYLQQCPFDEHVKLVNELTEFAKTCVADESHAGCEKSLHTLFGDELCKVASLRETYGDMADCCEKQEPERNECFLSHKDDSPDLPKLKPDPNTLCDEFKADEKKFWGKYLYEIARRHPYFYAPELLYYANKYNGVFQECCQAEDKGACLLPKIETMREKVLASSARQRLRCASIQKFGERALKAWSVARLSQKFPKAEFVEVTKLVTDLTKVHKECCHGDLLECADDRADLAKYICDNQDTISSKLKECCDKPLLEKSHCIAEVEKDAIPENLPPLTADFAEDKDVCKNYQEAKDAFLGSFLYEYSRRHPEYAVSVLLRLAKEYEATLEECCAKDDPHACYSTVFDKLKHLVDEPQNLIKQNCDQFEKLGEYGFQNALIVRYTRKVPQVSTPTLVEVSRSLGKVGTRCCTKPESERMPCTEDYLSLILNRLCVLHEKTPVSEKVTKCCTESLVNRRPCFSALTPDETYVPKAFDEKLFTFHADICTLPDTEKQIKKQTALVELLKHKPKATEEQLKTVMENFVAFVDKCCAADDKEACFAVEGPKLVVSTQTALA

As for 17β-estradiol, the Km in series [1] is 7.84 µM.
For the compound `Cc1cc(=O)oc2cc(O)ccc12` [4-MU, 4-Methylumbelliferone], the “V max ± S.E.” value in [2] is 8.0±0.3(7.3–8.7) nmol•min^–1•mg^–1; in series [3], 0.28±0.03(0.22–0.34) nmol•min^–1•mg^–1; in series [4] it was 0.25±0.01(0.22–0.28) nmol•min^–1•mg^–1; in series [5], 0.11±0.004(0.11–0.12) nmol•min^–1•mg^–1; in series [6] (No BSA, measured rates, not expression normalized, 17α-estradiol: 3-glucuronide formation) it was 0.83±0.01(0.82–0.85) nmol•min^–1•mg^–1; in series [7] it was 5.2±0.3(4.5–6.0) nmol•min^–1•mg^–1.
Regarding `Oc1ccc2cc[nH]c2c1` [6-Hydroxyindole, 6-hydroxyindole], the “nonspecific binding to the RED device” value in series [8] is reported as no more than 10%. The same compound had a fraction unbound at 6 h in series [9] of 0.84 to 0.97. Further, the “V max ± S.E.” value in [7] was 7.0±0.8(5.3–8.7) nmol•min^–1•mg^–1.
Consider `C[C@]12CC[C@@H]3c4ccc(O)cc4CC[C@H]3[C@@H]1CC[C@H]2O` [17α-Estradiol, 17α-estradiol], for which the “binding to control insect cell membrane” value in series [10] was “negligible”. The entries for the “V max ± S.E.” value in series [6] and in series [11] were 0.069±0.003(0.062–0.076) nmol•min^–1•mg^–1 and 0.053±0.002(0.048–0.058) nmol•min^–1•mg^–1, respectively. Besides, the “K m or S 50 ± S.E.” value is 5.58±0.56 ^***(4.24–6.74) µM in series [6] (0.1% BSA, substrate concentration corrected for binding to BSA, 17α-estradiol: 3-glucuronide formation) and 1.60±0.23 ^***(1.12–2.08) µM in series [11]. This compound also showed a fraction unbound at 8 h in series [9] of 0.49 ± 0.01.
Turning to `CCN(CC)C(=O)/C(C#N)=C/c1cc(O)c(O)c([N+](=O)[O-])c1` [Entacapone], the “V max ± S.E.” value in [2] is 0.91±0.01(0.89–0.94) nmol•min^–1•mg^–1; in series [4] it was 0.15±0.01(0.14–0.16) nmol•min^–1•mg^–1. In [12], the “f u (unbound fraction)” value is on record as less than 0.1.
In the case of bovine serum albumin [BSA], the “V max increase on inclusion of 0.1% BSA” value in series [4] (0.1% BSA vs no BSA) is listed as “up to 7 fold”. Also, in series [13], the “effect of 2% BSA instead of 0.1% BSA” value was “very little effect”. For the same compound, the “decrease of K m values on inclusion of 0.1% BSA” value in [14] was “up to 20 fold”.

In general, fraction unbound refers to the share of the substance not bound to proteins or other matrix. Low readings indicate extensive binding, high ones weak binding.
